Experiments:
[1] = cyclic voltammetry; format: physicochemical; settings: DMF, 0.2 M [n-Bu4N][BF4], 1.5 mM complex, scan rate 100 mV s^-1
Experimental: Since the redox potential is a crucial characteristic for the activation of cobalt(III)-based prodrugs systems, we investigated the novel complexes by cyclic voltammetry in comparison to Co(acac)2LEGFR. Measurements were performed in dimethylformamide (DMF) (+0.2 M [n-Bu4N][BF4]) at a scan speed of 100 mV s^−1. […] Even at a higher scan speed of 1000 mV s^−1, the redox processes were still completely irreversible for all complexes (Fig. S5 ^†).
The compounds were dissolved in DMF (+0.2 M [n-Bu4N][BF4]) to obtain a final concentration of 1.5 mM. Electrochemical experiments were conducted on an EG&G PARC 273A potentiostat/galvanostat with a scan rate of 100–1000 mV s^−1 at room temperature. Argon was bubbled through the solution before every measurement to remove oxygen. A three-electrode configuration cell was used with a glassy carbon electrode as working electrode, which was polished before every measurement. The reference electrode was Ag/Ag^+/ACN (10 mM AgNO3) and the auxiliary electrode was a platinum wire. The potentials were referenced to an internal standard redox couple of ferrocenium/ferrocene and calculated to the NHE (E1/2 = +0.72 V vs. NHE).[63] […] Redox potentials measured relative to the Ag/AgCl/KCl (3.5 M) reference electrode and converted to the NHE using +0.205 V. Measurements were at least repeated three times and the mean values were calculated.

[2] = tested on: UM-UC-14 cells; assay: ligand release by UV fluorescence microscopy; format: cell-based, human; settings: 10 μM, 24 h, UM-UC-14, fluorescence microscopy
Experimental: The enhanced stability of Co(acac)2LPon under normoxia and its hypoxia-induced ligand release was subsequently confirmed by fluorescence microscopy. Fluorescence intensities indicated a ∼2.8-fold decreased stability of the cobalt(III) complex under hypoxic vs. normoxic cell culture conditions.
UM-UC-14 cells were seeded (2.5 × 10^5 cells per well) in 12-well plates and after 24 h recovery treated with 10 μM of compounds. After 24 h incubation, the drug solutions were removed, cells were washed with PBS and microphotographs of the different treatments were taken using UV fluorescence microscopy (Nikon Eclipse Ti2 microscope with a DAPI filter and a high-pressure mercury lamp) and a 20× objective. The level of cellular fluorescence was determined from fluorescence microscopy images using ImageJ software.
Figure S9: Ligand release of Co(acac)2LPon under normoxic and hypoxic cell culture conditions in comparison to LPon using UV fluorescence microscopy. UM-UC-14 cells were incubated with 10 µM of compounds for 24 h. Images of the different treatments were taken by UV fluorescence microcopy (20X objective) and the corrected total cell fluorescence was evaluated using ImageJ software. Data in Figure S9B are given as means ± SD of ten analyzed microphotographs per compound. Statistical significance was calculated by unpaired t test with p < .05(*). […]

[3] = tested on: p-ERK1/2 and p-S6 in K-562 cells; assay: western blot of downstream signalling, 12 h; format: cell-based, human; settings: hypoxic conditions, K-562, 12 h
Experimental: Fig. 10 Impact of the cobalt(III) complexes on the ERK1/2 and S6 under normoxic and hypoxic conditions. K-562 cells were treated with the compounds, after 12 h cell lysates were prepared and protein expression as well as phosphorylation levels of downstream pathways (p-ERK1/2 and p-S6) analyzed by western blotting. One representative experiment out of three is shown. The ratio of phosphorylated to total protein is given between the respective lanes.
K-562 cells were plated (5 × 10^5 cells per well) in 6-well plates and allowed to recover for 24 h. Subsequently, the cells were treated with the drugs in different concentrations. After 12 h cells were harvested, proteins were isolated, resolved by sodium dodecyl sulfate polyacrylamide gel electrophoresis (SDS/PAGE), and transferred onto a polyvinylidene difluoride membrane for western blotting. The following antibodies were used: ERK1/2 (p44/42) rabbit monoclonal antibody (mAb) (137F5, #4695), phospho-ERK1/2 rabbit mAb (Thr202/Tyr204) (20G11, #4376), phospho-S6 rabbit pAb (Ser240/244, #2215) (Cell Signaling Technology, Beverly, MA, USA), S6 mouse mAb (C-8. #sc-74459) (Santa Cruz Biotechnology, TX, USA) and β-actin mouse mAb (#A5441, Sigma). All primary antibodies were used in 1 : 1000 dilutions (in Tris-buffered saline containing 0.1% Tween20 (TBST) + 3% bovine serum albumin (BSA)). Secondary goat anti-mouse-IgG (Fc specific)-peroxidase antibody (#A0168, Sigma) and horseradish peroxidase(HRP)-labeled mouse anti-rabbit IgG (#sc-2357, Santa Cruz Biotechnology) were used at working dilutions of 1 : 10 000 (in TBST + 1% BSA).

CC(=O)C=C(C)[O-].CC(=O)C=C(C)[O-].Cc1ccc(C(=O)Nc2ccc(CNCCN)c(C(F)(F)F)c2)cc1C#Cc1cnc2cccnn12.O=C(O)C(F)(F)F.[Co+3] [Co(acac)2LPon, Bis(2,4-pentanedionato)N-(4-(((2-aminoethyl)amino)methyl)-3-(trifluoromethyl)phenyl)-3-(imidazo[1,2-b]pyridazin-3-ylethynyl)-4-methylbenzamide cobalt(III) 2,2,2-trifluoroacetate]
cathodic peak potential (Co(III) to Co(II), irreversible) [1]: −315 mV vs. NHE | fluorescence intensity change (decreased stability) hypoxic vs. normoxic [2]: ~2.8 fold | activity on S6 phosphorylation compared with ponatinib [3]: equally active as compared to ponatinib

— article PMC8129988 (Inorganic Chemistry Frontiers, 2021)
